# Columns and labels:
# cholesterol oxidase [1] = experiment: Inhibition of the enzyme; format: biochemical, Corynebacterium cholesterolicum
# cholesterol oxidase [2] = experiment: Action and substrate specificity: relative activity by hydrogen peroxide formation (peroxidase/4-aminoantipyrine/phenol, absorbance at 500 nm); format: biochemical, Corynebacterium cholesterolicum
# Method: All the above-mentioned values of relative activity (%) refer to the relative amounts of hydrogen peroxide formed from the substances oxidized by cholesterol oxidase, where the activity to cholesterol is taken as 100. The activity was measured by the following procedure.
# A substrate solution was prepared by mixing 50 microliter of a 0.38 micromolar solution of cholesterol in isopropanol with 3 milliliter of 0.1 M phosphate buffer (pH 7.0; it contains 0.82 millimoles of 4-aminoantipyrine, 14 millimoles of phenol, 0.17 millimoles of Carbowax 6000 and 0.3% Triton X-100). The resulting substrate solution was incubated for 5 minutes in a cell of light path, 10 mm, kept at 37° C.
# 50 microliter of an enzyme solution containing 2.5 U of peroxidase and 0.1 U of cholesterol oxidase was added. The increase in absorbance at 500 nm was measured at 37° C. The initial velocity was obtained from the increase in absorbance, from which the relative activity was computed. [Literature: Charles C. Allain, Lucy S. Poon, Cicely G. Chan, W. Richmond and Paul C. Fu, Clin. Chem. 20, 470 (1974)].
# cholesterol oxidase [3] = experiment: Km value by the ultraviolet absorption method; format: biochemical, Corynebacterium cholesterolicum
# Method: (§1) Enzymatic activity was measured by ultraviolet absorption method [Clin. Chem. 20, 470 (1974)]. A substrate solution was prepared by dissolving 5 ml of a 300 mg/dl solution of cholesterol in isopropanol into 300 ml of phosphate buffer (pH 7.0) containing 0.05% of Triton X-100. 20 microliter of enzyme solution was added to 3.0 ml of the substrate solution, and the resulting mixture was reacted at 37° C for 15 minutes. Increase in the absorption at 240 nm, assignable to cholest-4-en-3-one resulting from the reaction, was measured.
# [4] = Relative activities of various enzymes exhibited to pregnenolone and cholesterol; format: biochemical; details: ratio of activity to pregnenolone over cholesterol; source of values for known enzymes not stated
# Text: This enzyme oxidizes the hydroxyl group of steroids at […], and exerts no action upon other position of hydroxyl groups, such as 3α, 17β, etc., nor upon ester groups.
# [5] = Optimum pH and optimum temperature for the action of the enzyme; format: biochemical
# Method: The optimum pH is in the vicinity of 7.0 when the substrate is cholesterol.
# When the reaction time is 15 minutes, the optimum temperature is 40° C.
# as §1
# [6] = format: physicochemical; details: treated at 30° C for 1 hour
# Method: It keeps stable in the pH range of 5-9 when treated at 30° C for 1 hour.
# [7] = Isoelectric point by isoelectric focusing; format: physicochemical; details: pH, carrier ampholyte pH 3-10, 900 V, 50 hours, 4° C
# Method: The enzyme has an isoelectric point of pH 8.7, as measured by the method of isoelectric focusing. Thus, 10 mg of a purified enzyme was introduced into a 110 ml column packed with a carried ampholyte kept at pH 3-10 [LKB-Producter, commercial name of a product manufactured by AB Co.; cf. Biochem. Biophys. Acta, 133, 435 (1967)]. An electric current was passed at a voltage of 900 V for a period of 50 hours, while the column was cooled to 4° C.
# [8] = relative amounts of hydrogen peroxide formed, activity to cholesterol taken as 100, initial velocity, 37° C, pH 7.0
Compound,Relative activity (%) (cholesterol oxidase [2]; [8]),also measured
[Hg+2] [Hg^2+],–,Inhibition of the enzyme (in words) (cholesterol oxidase [1]): inhibited
[Ag+] [Ag^+],–,Inhibition of the enzyme (in words) (cholesterol oxidase [1]): inhibited
CC[C@H](CC[C@@H](C)[C@H]1CC[C@H]2[C@@H]3CC=C4C[C@@H](O)CC[C@]4(C)[C@H]3CC[C@]12C)C(C)C [β-Sitosterol],54,–
O=C(O)c1cc[c]([Hg][Cl])cc1 [p-chloromercuribenzoate],–,Inhibition of the enzyme (in words) (cholesterol oxidase [1]): inhibited
O=C(O)CN(CCN(CC(=O)O)CC(=O)O)CC(=O)O [EDTA],–,Inhibition of the enzyme (in words) (cholesterol oxidase [1]): not inhibited
CC(C)[C@@H](C)/C=C/[C@@H](C)[C@H]1CC[C@H]2C3=CC=C4C[C@@H](O)CC[C@]4(C)[C@H]3CC[C@]12C [Ergosterol],13,–
C[C@]12CC[C@H](O)C[C@H]1CC[C@@H]1[C@@H]2CC[C@]2(C)[C@@H](C3=CC(=O)OC3)CC[C@]12O [Digitoxigenin],0,–
Oc1cccc2cccnc12 [8-hydroxyquinoline],–,Inhibition of the enzyme (in words) (cholesterol oxidase [1]): not inhibited
CC[C@H](/C=C/[C@@H](C)[C@H]1CC[C@H]2[C@@H]3CC=C4C[C@@H](O)CC[C@]4(C)[C@H]3CC[C@]12C)C(C)C [Stigmasterol],17,–
CC(=O)[C@H]1CC[C@H]2[C@@H]3CC=C4C[C@@H](O)CC[C@]4(C)[C@H]3CC[C@]12C [Pregnenolone],416,Km (cholesterol oxidase [3]): 31 µM
CC(=O)O[C@H]1CC[C@@]2(C)C(=CC[C@H]3[C@@H]4CC[C@H]([C@H](C)CCCC(C)C)[C@@]4(C)CC[C@@H]32)C1 [Cholesterol acetate],0,–
C=C1CC[C@H](O)C/C1=C/C=C1\CCC[C@]2(C)[C@@H]([C@H](C)CCCC(C)C)CC[C@@H]12 [Vitamin D3],0,–
C[C@H](CCC(=O)O)[C@H]1CC[C@H]2[C@@H]3[C@H](O)C[C@@H]4C[C@H](O)CC[C@]4(C)[C@H]3C[C@H](O)[C@]12C [Cholic acid],0,–
C[C@]12CC[C@@H](O)C[C@@H]1CC[C@@H]1[C@@H]2CC[C@]2(C)C(=O)CC[C@@H]12 [Androsterone],–,Relative activity (%) (cholesterol oxidase [2]; pH 7): 0%
C[C@@H]1CC[C@@]2(OC1)O[C@H]1C[C@H]3[C@@H]4CC=C5C[C@@H](O)CC[C@]5(C)[C@H]4CC[C@]3(C)[C@H]1[C@@H]2C [Diosgenin],0,–
CC(C)CCC[C@@H](C)[C@H]1CC[C@H]2[C@@H]3CC=C4C[C@@H](O)CC[C@]4(C)[C@H]3CC[C@]12C [Cholesterol],100,Km (cholesterol oxidase [3]): 54 µM
C[C@]12CC[C@@H]3c4ccc(O)cc4CC[C@H]3[C@@H]1CC[C@@H]2O [β-Estradiol],0,–
cholesterol oxidase,–,relative activities exhibited to pregnenolone and cholesterol [4]: 4.16; optimum temperature for the action ([5]; reaction time 15 minutes): 40 °C; Optimum pH ([5]; substrate is cholesterol): ~7.0; pH range in which it keeps stable [6]: 5-9; isoelectric point [7]: 8.7
CC(C)CCC[C@@H](C)[C@H]1CC[C@H]2[C@@H]3CC[C@H]4C[C@@H](O)CC[C@]4(C)[C@H]3CC[C@]12C [β-Cholestanol],43,–
c1cnc2c(c1)ccc1cccnc12 [o-phenanthroline],–,Inhibition of the enzyme (in words) (cholesterol oxidase [1]): not inhibited
C[C@]12CC[C@H](O)CC1=CC[C@@H]1[C@@H]2CC[C@]2(C)C(=O)CC[C@@H]12 [Dehydro-epiandrosterone],57,–
C[C@]12CC[C@H]3[C@@H](CCC4=CC(=O)CC[C@@]43C)[C@@H]1CC[C@@H]2O [Testosterone],0,–

# — patent US4061540A, “Cholesterol oxidaze and process for preparing same” (Kikkoman Shoyu Co., Ltd., priority 1975, dated 1977)
